Values joined by “and” are separate entries in the source; they are usually repeats but may differ in a detail not shown here. Identical values can stand only once. Numbered stars: 1 amine (or outer) side, 2 acyl side, 3 side chain; on linkers, the order of the positions; unused ones are H or OH. Bridge positions count the residues as written; N and C are the ends. Square brackets hold non-standard residues; d marks the D form. Peptide text beside a SMILES is read from it. I, II: the chains in the order shown. Actinocin(9to1) = Cc1c2oc3c(C)ccc(C(=O)[*:1])c3nc-2c(C(=O)[*:2])c(N)c1=O; aThr = C[C@H](O)[C@H](N)C(=O)O; NMeV = CN[C@H](C(=O)O)C(C)C; Sar = CNCC(=O)O
System: Swiss mice, Sarcoma 180 sc, mean tumor weight T/C
Assay: NCI In Vivo Anticancer Drug Screen. Data for tumor model Sarcoma 180 (subcutaneous) in Swiss mice
Settings: endpoint: mean tumor weight, higher = larger tumour
Procedure, shortened: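 Mice bearing transplanted tumors were treated with compound, and survival or tumor size was measured. Values are expressed as the treated-group measurement (T) divided by the vehicle-treated control measurement (C).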

[1] = dose: 11.1 mg/kg/injection, schedule: Q#A X014 (ip), vehicle: methylcellulose (MC)
[2] = dose: 16.65 mg/kg/injection, schedule: Q#A X014 (ip), vehicle: methylcellulose (MC)
[3] = dose: 25.0 mg/kg/injection, schedule: Q#A X014 (ip), vehicle: methylcellulose (MC)
[4] = dose: 37.5 mg/kg/injection, schedule: Q#A X014 (ip), vehicle: methylcellulose (MC)

COCCOC1=C(N2CC2)C(=O)C(OCCOC)=C(N2CC2)C1=O
T/C (dose: 0.89 mg/kg/injection, schedule: Q01DX007 (sc), vehicle: saline): 61 % of control
T/C (dose: 1.3 mg/kg/injection, schedule: Q01DX007 (sc), vehicle: saline): 72 % of control
T/C (dose: 1.6 mg/kg/injection, schedule: Q01DX007 (oral), vehicle: saline): 95 % of control
T/C (dose: 2.0 mg/kg/injection, schedule: Q01DX001 (ip), vehicle: saline): 97 % of control
T/C (dose: 2.0 mg/kg/injection, schedule: Q01DX006 (iv), vehicle: saline): 71 % of control
T/C (dose: 2.0 mg/kg/injection, schedule: Q01DX007 (im), vehicle: saline): 59 % of control
T/C (dose: 2.0 mg/kg/injection, schedule: Q01DX007 (ip), vehicle: saline): 56 % of control
T/C (dose: 2.0 mg/kg/injection, schedule: Q01DX007 (sc), vehicle: saline): 45 % of control
T/C (dose: 2.0 mg/kg/injection, schedule: Q03DX003 (ip), vehicle: saline): 64 % of control
T/C (dose: 2.4 mg/kg/injection, schedule: Q01DX007 (oral), vehicle: saline): 75 % of control
T/C (dose: 3.0 mg/kg/injection, schedule: Q01DX001 (ip), vehicle: saline): 48 % of control
T/C (dose: 3.0 mg/kg/injection, schedule: Q01DX006 (iv), vehicle: saline): 48 % of control
T/C (dose: 3.0 mg/kg/injection, schedule: Q01DX007 (im), vehicle: saline): 59 % of control
T/C (dose: 3.0 mg/kg/injection, schedule: Q01DX007 (ip), vehicle: saline): 37 % of control
T/C (dose: 3.0 mg/kg/injection, schedule: Q01DX007 (sc), vehicle: saline): 30 % of control
T/C (dose: 3.0 mg/kg/injection, schedule: Q03DX003 (ip), vehicle: saline): 50 % of control
T/C (dose: 3.6 mg/kg/injection, schedule: Q01DX007 (oral), vehicle: saline): 73 % of control
T/C (dose: 4.0 mg/kg/injection, schedule: Q01DX006 (iv), vehicle: saline): 21 % of control
T/C (dose: 4.0 mg/kg/injection, schedule: Q03DX003 (ip), vehicle: saline): 51 % of control
T/C (dose: 5.3 mg/kg/injection, schedule: Q01DX007 (oral), vehicle: saline): 38 % of control
T/C (dose: 6.0 mg/kg/injection, schedule: Q01DX001 (ip), vehicle: saline): 83 % of control
T/C (dose: 6.0 mg/kg/injection, schedule: Q03DX003 (ip), vehicle: saline): 33 % of control
T/C (dose: 8.0 mg/kg/injection, schedule: Q01DX007 (oral), vehicle: saline): 34 % of control
T/C (dose: 12.0 mg/kg/injection, schedule: Q01DX001 (ip), vehicle: saline): 32 % of control

CCCOP(=S)(N1CC1)N1CC1
T/C (dose: 6.65 mg/kg/injection, schedule: Q#A X014 (ip), vehicle: methylcellulose (MC)): 74 % of control
T/C (dose: 6.65 mg/kg/injection, schedule: Q#A X014 (ip), vehicle: saline): 80 % of control and 89 % of control
T/C (dose: 10.0 mg/kg/injection, schedule: Q#A X014 (ip), vehicle: methylcellulose (MC)): 67 % of control
T/C (dose: 15.0 mg/kg/injection, schedule: Q#A X014 (ip), vehicle: methylcellulose (MC)): 47 % of control
T/C (dose: 15.0 mg/kg/injection, schedule: Q#A X014 (ip), vehicle: saline): 37 % of control and 40 % of control

Nc1nc(SCc2ccccn2)c2ncn(C3OC(CO)C(O)C3O)c2n1 (stereo not given)
T/C [1]: 52 % of control
T/C [2]: 48 % of control
T/C [3]: 37 % of control
T/C [4]: 41 % of control

CO[C@H]1C[C@H](O[C@H]2CC[C@]3(C=O)[C@H]4CC[C@]5(C)[C@@H](C6=CC(=O)OC6)CC[C@]5(O)[C@@H]4CC[C@]3(O)C2)O[C@H](C)[C@H]1O
T/C (dose: 2.5 mg/kg/injection, schedule: Q01DX007 (sc), vehicle: saline): 86 % of control
T/C (dose: 5.0 mg/kg/injection, schedule: Q01DX007 (sc), vehicle: saline): 62 % of control

CNCCc1ccccc1
T/C (dose: 110.0 mg/kg/injection, schedule: Q01DX007 (ip), vehicle: saline): 77 % of control

CCCCCCC(=O)NC1=C(N2CC2)C(=O)C(NC(=O)CCCCCC)=C(N2CC2)C1=O
T/C (dose: 27.75 mg/kg/injection, schedule: Q#A X014 (ip), vehicle: methylcellulose (MC)): 42 % of control and 50 % of control and 56 % of control
T/C (dose: 41.5 mg/kg/injection, schedule: Q#A X014 (ip), vehicle: methylcellulose (MC)): 38 % of control and 50 % of control and 53 % of control
T/C (dose: 62.5 mg/kg/injection, schedule: Q#A X014 (ip), vehicle: methylcellulose (MC)): 31 % of control

[Cu+2].[O-]c1ccc(Br)c2cccnc12.[O-]c1ccc(Br)c2cccnc12
T/C (dose: 4.2 mg/kg/injection, schedule: Q01DX007 (ip), vehicle: carboxymethylcellulose (CMC)): 71 % of control
T/C (dose: 6.2 mg/kg/injection, schedule: Q01DX007 (ip), vehicle: carboxymethylcellulose (CMC)): 66 % of control
T/C (dose: 14.0 mg/kg/injection, schedule: Q01DX007 (ip), vehicle: other): 63 % of control
T/C (dose: 21.0 mg/kg/injection, schedule: Q01DX007 (ip), vehicle: other): 39 % of control
T/C (dose: 32.0 mg/kg/injection, schedule: Q01DX007 (ip), vehicle: other): 26 % of control

CC[C@]1(O)C[C@H]2CN(CCc3c([nH]c4ccccc34)[C@@](C(=O)OC)(c3cc4c(cc3OC)N(C=O)[C@H]3[C@@](O)(C(=O)OC)[C@H](OC(C)=O)[C@]5(CC)C=CCN6CC[C@]43[C@@H]65)C2)C1
T/C (dose: 0.12 mg/kg/injection, schedule: Q01DX007 (ip), vehicle: saline): 57 % of control

CC(=O)C1=C(O)C2(O)C(=O)c3c(c(C)c4ccc(C)c(O)c4c3O)CC2C(N)C1=O (stereo not given)
T/C (dose: 18.8 mg/kg/injection, schedule: Q01DX007 (ip), vehicle: saline): 114 % of control
T/C (dose: 37.5 mg/kg/injection, schedule: Q01DX007 (ip), vehicle: saline): 112 % of control
T/C (dose: 75.0 mg/kg/injection, schedule: Q01DX007 (ip), vehicle: saline): 81 % of control
T/C (dose: 150.0 mg/kg/injection, schedule: Q01DX007 (ip), vehicle: saline): 104 % of control

O=C1C=CC2(CCC23C=CC(=O)O3)O1 (stereo not given)
T/C (dose: 40.0 mg/kg/injection, schedule: Q01DX007 (ip), vehicle: saline): 88 % of control

Cc1c2oc3c(C)ccc(C(=O)N[C@@H]4C(=O)N[C@H](C(C)C)C(=O)N5CCC[C@H]5C(=O)N(C)CC(=O)N(C)[C@@H](C(C)C)C(=O)O[C@H]4C)c3nc-2c(C(=O)N[C@@H]2C(=O)N[C@H](C(C)C)C(=O)N3CCC[C@H]3C(=O)N(C)CC(=O)N(C)[C@@H](C(C)C)C(=O)O[C@H]2C)c(N)c1=O (I: [aThr][dV]P[Sar][NMeV] / II: [aThr][dV]P[Sar][NMeV]; ester I:1-I:C, II:1-II:C; linker I:N-II:N via Actinocin(9to1))
T/C (dose: 4.0 mg/kg/injection, schedule: Q#A X014 (ip), vehicle: carboxymethylcellulose (CMC)): 105 % of control
T/C (dose: 7.5 mg/kg/injection, schedule: Q#A X014 (ip), vehicle: carboxymethylcellulose (CMC)): 71 % of control
T/C (dose: 12.0 mg/kg/injection, schedule: Q#A X014 (ip), vehicle: carboxymethylcellulose (CMC)): 70 % of control
T/C (dose: 15.0 mg/kg/injection, schedule: Q#A X014 (ip), vehicle: carboxymethylcellulose (CMC)): 47 % of control and 71 % of control
T/C (dose: 20.0 mg/kg/injection, schedule: Q#A X014 (ip), vehicle: carboxymethylcellulose (CMC)): 51 % of control
T/C (dose: 30.0 mg/kg/injection, schedule: Q#A X014 (ip), vehicle: carboxymethylcellulose (CMC)): 13 % of control and 24 % of control

CC(/C=N\N=C(N)N)=N/N=C(N)N
T/C (dose: 42.1 mg/kg/injection, schedule: Q01DX007 (ip), vehicle: carboxymethylcellulose (CMC)): 113 % of control

CCCCN(C)N=Nc1ccc(C(N)=O)cc1
T/C (dose: 50.0 mg/kg/injection, schedule: Q01DX007 (ip), vehicle: carboxymethylcellulose (CMC)): 67 % of control
T/C (dose: 75.0 mg/kg/injection, schedule: Q01DX007 (ip), vehicle: carboxymethylcellulose (CMC)): 32 % of control

CN1CCCC1c1cccnc1 (stereo not given)
T/C (dose: 0.25 mg/kg/injection, schedule: Q01DX007 (ip), vehicle: carboxymethylcellulose (CMC)): 76 % of control
T/C (dose: 0.5 mg/kg/injection, schedule: Q01DX007 (ip), vehicle: carboxymethylcellulose (CMC)): 105 % of control
T/C (dose: 1.0 mg/kg/injection, schedule: Q01DX007 (ip), vehicle: carboxymethylcellulose (CMC)): 66 % of control

c1cncc(CSc2ncnc3nc[nH]c23)c1
T/C [1]: 53 % of control
T/C [2]: 60 % of control
T/C [3]: 70 % of control
T/C [4]: 47 % of control

CO[C@@H]1[C@@H](OC2OC(C)C(OC3CC(C)(O)C(OC(=O)CC(C)C)C(C)O3)C(N(C)C)C2O)[C@@H](CC=O)C[C@@H](C)C(=O)/C=C/C2O[C@H]2C[C@@H](C)OC(=O)C[C@H]1OC(C)=O (stereo not given in full)
T/C [3]: 86 % of control
T/C (dose: 50.0 mg/kg/injection, schedule: Q#A X014 (ip), vehicle: methylcellulose (MC)): 116 % of control
T/C (dose: 75.0 mg/kg/injection, schedule: Q#A X014 (ip), vehicle: methylcellulose (MC)): 88 % of control
T/C (dose: 100.0 mg/kg/injection, schedule: Q#A X014 (ip), vehicle: methylcellulose (MC)): 95 % of control
T/C (dose: 100.0 mg/kg/injection, schedule: Q#A X014 (ip), vehicle: other): 96 % of control
T/C (dose: 125.0 mg/kg/injection, schedule: Q#A X014 (ip), vehicle: methylcellulose (MC)): 75 % of control
T/C (dose: 125.0 mg/kg/injection, schedule: Q#A X014 (ip), vehicle: other): 113 % of control
T/C (dose: 150.0 mg/kg/injection, schedule: Q#A X014 (ip), vehicle: other): 65 % of control
T/C (dose: 175.0 mg/kg/injection, schedule: Q#A X014 (ip), vehicle: other): 57 % of control
